Like-named read-outs stand apart in the source and are kept apart here.
Key:
[1] = target: AeKir1 (Aedes aegypti, UniProt L0EQS9); test: Tl+ flux assay in T-REx-HEK293-AeKir1 cells; assay type: cell-based; details: for IC50: read-out: IC50±SEM
Protocol: Tl^+ flux assays were performed essentially as described previously, [18], [19]. Briefly, stably transfected T-Rex-HEK-293 cells expressing AeKir1 channels were cultured overnight in 384-well plates (20,000 cells/20 µL/well black-walled, clear-bottomed BD PureCoat amine-coated plates (BD, Bedford, MA) with a plating media containing DMEM, 10% dialyzed FBS and 1 µg/mL tetracycline. The next day, the cell culture medium was replaced with a dye-loading solution containing assay buffer (Hanks Balanced Salt Solution with 20 mM HEPES, pH 7.3), 0.01% (w/v) Pluronic F-127 (Life Technologies, Carlsbad, CA), and 1.2 µM of the thallium-sensitive dye Thallos-AM (TEFlabs, Austin, TX). Following 1 hr incubation at room temperature, the dye-loading solution was washed from the plates and replaced with 20 µL/well of assay buffer. The plates were transferred to a Hamamatsu Functional Drug Screening System 6000 (FDSS6000; Hamamatsu, Hamamatsu (or Bridgewater, NJ), Japan) where 20 µL/well of test compounds in assay buffer (as prepared below) were added and allowed to incubate with the cells for 20 min. After the incubation period, a baseline recording was collected at 1 Hz for 10 s (excitation 470±20 nm, emission 540±30 nm) followed by a Tl^+ stimulus buffer addition (10 µL/well) and data collection for an additional 4 min. The Tl^+ stimulus buffer contains in (mM) 125 NaHCO3, 1.8 CaSO4, 1 MgSO4, 5 glucose, 12 Tl2SO4, 10 HEPES, pH 7.4. For Tl^+ flux assays on the mammalian channels Kir2.x, Kir4.1 and Kir6.2/SUR1 expressing cells, the Tl^+ stimulus buffer contained 1.8 mM Tl2SO4. Also, Tl^+ flux assays on Kir3.1/3.2/mGlu8 expressing cell, required addition of an EC80 concentration of glutamate (Sigma-Aldrich, St. Louis, MO) with the Tl^+ stimulus buffer. The test compounds were transferred to daughter polypropylene 384-well plates (Greiner Bio-One, Monroe, NC) using an Echo555 liquid handler (Labcyte, Sunnyvale, CA), and then diluted into assay buffer to generate a 2X stock in 0.6% DMSO (0.3% final). For Tl^+ flux assays on Kir6.2/SUR1 expressing cells, test compounds were diluted in assay buffer containing diazoxide (250 µM final) to induce channel activation. Concentration-response curves (CRCs) were generated by screening compounds at 3-fold dilution series in 4-point (1 µM–30 µM) or 11-point (1 nM–30 µM) CRCs. Tl^+ flux data were analyzed as previously described, [21], [22] using a combination of Excel (Microsoft Corp, Redmond, WA) with XLfit add-in (IDBS, Guildford, Surrey, UK) and OriginPro (OriginLab, Northampton, MA) software. Raw data were opened in Excel and each data point in a given trace was divided by the first data point from that trace (static ratio) followed by subtraction of data points from control traces generated in the presence of vehicle controls. The slope of the fluorescence increase beginning 5 s after Tl^+ addition and ending 15 s after Tl^+ addition was calculated. To compare the effect of DMSO on AeKir1-mediated Tl^+ flux, a one-way ANOVA was performed with a Tukey's multiple comparison test. Prism software (GraphPad Software) was used to generate CRC from Tl^+ flux. Half-inhibition concentration (IC50) values were calculated from fits using a four parameter logistic equation.

[2] = target: AeKir2B (Aedes aegypti, UniProt L0EQ40); design: method as in PMID 24959745; details: cited from earlier work
[3] = system: adult female mosquitoes (A. aegypti); design: method as in PMID 23734226, PMID 24959745; details: within 24 h; cited from earlier work
[4] = system: mosquitoes; test: Toxicity when applied to the cuticle (topical); assay type: in vivo; details: Piermarini, unpublished observations
[5] = system: adult female mosquitoes (A. aegypti); design: method as in PMID 23734226, PMID 24959745; details: after loading hemolymph with 900 nl of a PBS vehicle; cited from earlier work
[6] = system: adult female mosquitoes (A. aegypti); test: Mosquito excretion experiments (excretory capacity); assay type: in vivo, Aedes aegypti; details: probenecid 3.4 nmol per mosquito in 900 nL vehicle, 1 h after injection; mean ±SEM
Protocol: The Aedes aegypti mosquito colony used in the present study is identical to that described previously. As before, only adult female mosquitoes 3–10 days post emergence were utilized for experiments.
The excretory capacity of mosquitoes was measured as described. In brief, after anesthetizing mosquitoes on ice, their hemolymph was injected as described above with 900 nL of a K^+-PBS vehicle containing 1.15% DMSO, 0.077% β-cyclodextrin, and 0.008% Solutol, or the vehicle containing VU625 (0.77 mM) to deliver a dose of 690 pmol of VU625 per mosquito. In experiments where probenecid was used, the vehicle was supplemented with water- soluble probenecid […] to deliver a dose of 3.4 nmol of probenecid per mosquito. After injection, the mosquitoes were placed immediately in a graduated, packed-cell volume tube (MidSci, St. Louis, MO; 5 mosquitoes per tube) and held at 28°C. The volume of urine excreted at 60 min post injection was measured as described previously, and all mosquitoes were confirmed to be alive at the end of 60 min period. For each treatment, 6–18 independent trials of 5 mosquitoes per treatment were performed.
Prism (GraphPad Software) was used to generate a dose-response curve for the toxicity of VU625; the doses (x-axis) were first log transformed and then the mortality data was normalized using Prism, where the smallest value and largest values in a data set equal ‘0%’ and ‘100%’, respectively. The data were then fitted using a ‘biphasic’ algorithm (<100 constraint) to calculate potencies (ED25 and ED75 values). To compare 1) the toxic effects among the vehicle, probenecid, VU625, and VU625 + probenecid treatments, and 2) the excretory capacity among the vehicle, probenecid, VU625, and VU625 + probenecid treatments, one-way ANOVAs were performed with Newman-Keuls posttests.

[7] = Table 2, southern amide SAR, 11-point CRCs on AeKir1 in Tl+ flux, triplicate on two separate days
[8] = Table 3, central core SAR, 11-point CRCs on AeKir1 in Tl+ flux, triplicate on two separate days

Chain of AeKir1 (L0EQS9 entry or part of it): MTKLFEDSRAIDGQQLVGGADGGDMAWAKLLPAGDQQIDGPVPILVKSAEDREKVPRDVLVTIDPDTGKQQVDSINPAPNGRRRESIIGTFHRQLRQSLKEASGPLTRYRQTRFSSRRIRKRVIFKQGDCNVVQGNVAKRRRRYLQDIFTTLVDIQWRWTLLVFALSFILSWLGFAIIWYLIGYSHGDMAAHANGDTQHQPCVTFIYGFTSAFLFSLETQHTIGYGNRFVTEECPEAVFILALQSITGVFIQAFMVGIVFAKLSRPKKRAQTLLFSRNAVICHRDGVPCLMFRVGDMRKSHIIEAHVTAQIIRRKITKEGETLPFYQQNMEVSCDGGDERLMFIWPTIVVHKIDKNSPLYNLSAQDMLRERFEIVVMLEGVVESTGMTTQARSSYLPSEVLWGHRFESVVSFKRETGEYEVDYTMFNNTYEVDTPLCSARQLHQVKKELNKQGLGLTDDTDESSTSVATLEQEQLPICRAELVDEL
Chain of AeKir2B (L0EQ40 entry or part of it): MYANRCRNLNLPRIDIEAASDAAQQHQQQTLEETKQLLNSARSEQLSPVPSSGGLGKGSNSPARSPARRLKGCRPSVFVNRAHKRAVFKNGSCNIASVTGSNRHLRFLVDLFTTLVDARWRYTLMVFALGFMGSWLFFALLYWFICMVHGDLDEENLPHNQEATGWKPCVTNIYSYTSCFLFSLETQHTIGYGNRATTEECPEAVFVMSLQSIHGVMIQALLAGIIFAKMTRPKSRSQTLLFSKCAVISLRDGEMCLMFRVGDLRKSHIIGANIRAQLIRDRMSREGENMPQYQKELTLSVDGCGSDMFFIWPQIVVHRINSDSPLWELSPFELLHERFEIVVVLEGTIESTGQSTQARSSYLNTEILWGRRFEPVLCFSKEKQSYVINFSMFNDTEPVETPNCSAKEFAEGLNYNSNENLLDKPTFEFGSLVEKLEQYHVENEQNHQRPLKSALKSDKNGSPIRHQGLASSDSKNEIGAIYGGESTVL

Structure (SMILES) | IC50 [1, 7] [nM] | IC50 [1, 8] [nM] | further results
COc1cccc(NS(=O)(=O)c2ccc3c(c2)CC(C)N3C(=O)C(F)(F)F)c1 (stereo not shown) [3b] | 580 ± 40 |  | 
COc1cccc(NS(=O)(=O)c2ccc3c(c2)CC(C)N3C(=O)c2cccc(F)c2)c1 (stereo not shown) [3c] | 5200 ± 400 |  | 
COc1cccc(NS(=O)(=O)c2ccc3c(c2)CC(C)N3C(=O)c2ccccc2C)c1 (stereo not shown) [3d] | 4410 ± 1110 |  | 
COc1cccc(NS(=O)(=O)c2ccc3c(c2)CC(C)N3C(=O)c2cccc(C)c2)c1 (stereo not shown) [3e] | 3870 ± 1970 |  | 
COc1cccc(NS(=O)(=O)c2ccc3c(c2)CC(C)N3C(=O)c2ccc(C)cc2)c1 (stereo not shown) [3f] | > 30000 |  | 
COc1cccc(NS(=O)(=O)c2ccc3c(c2)CC(C)N3C(=O)c2ccccn2)c1 (stereo not shown) [3g] | 4400 ± 500 |  | 
COc1cccc(NS(=O)(=O)c2ccc3c(c2)CC(C)N3S(=O)(=O)c2ccccc2)c1 (stereo not shown) [3h] | 3290 ± 890 |  | IC50±SEM [1, 7]: less activity
COc1cccc(NS(=O)(=O)c2ccc3c(c2)CC(C)N3C(=O)N(C)C)c1 (stereo not shown) [3i] | 2090 ± 490 |  | 
COc1cccc(NS(=O)(=O)c2ccc3c(c2)CC(C)N3S(C)(=O)=O)c1 (stereo not shown) [3j] | 2820 ± 480 |  | 
COc1cccc(NS(=O)(=O)c2ccc3c(c2)CC(C)N3S(=O)(=O)C2CC2)c1 (stereo not shown) [3k] | 760 |  | 
COc1cccc(NS(=O)(=O)c2ccc3c(c2)CC(C)N3S(=O)(=O)C(C)(C)C)c1 (stereo not shown) [3l] | 820 ± 480 |  | 
Cc1ccc(OCC(O)Cn2c(=N)n(Cc3ccccc3)c3ccccc32)cc1 (stereo not shown) [VU573] |  |  | effect on AeKir2B [2]: activates AeKir2B; effect of hemolymph injection on mosquitoes [3]: incapacitation and/or death within 24 h; toxicity when applied to the cuticle [4]: lack of topical activity; effect on excretory capacity [5]: decrease in the excretory capacity
O=[N+]([O-])c1ccc(CN2CCOCCOCCN(Cc3ccc([N+](=O)[O-])cc3)CCOCC2)cc1 [VU590] |  |  | effect on AeKir2B [2]: selective inhibitor of AeKir1 over AeKir2B; effect of hemolymph injection on mosquitoes [3]: incapacitation and/or death within 24 h; toxicity when applied to the cuticle [4]: lack of topical activity; effect on excretory capacity [5]: decrease in the excretory capacity
CCCN(CCC)S(=O)(=O)c1ccc(C(=O)O)cc1 [probenecid, reference compound] |  |  | excretory capacity (urine excreted) [6]: 467.8±33.53 nL/female

More lines, main results first:

IC50 [1, 7] [nM] | IC50 [1, 8] [nM] | Structure (SMILES) | further results
 | 550 ± 80 | COc1cccc(NS(=O)(=O)c2ccc3c(ccn3C)c2)c1 [4a] | 
 | 970 ± 100 | COc1cccc(NS(=O)(=O)c2ccc3c(c2)cc(C)n3C)c1 [4b] | 
 | > 30000 | COc1cccc(NS(=O)(=O)c2ccc3c(c2)CCC(=O)N3)c1 [4c] | 
 | > 30000 | COc1cccc(NS(=O)(=O)c2ccc3c(c2)OCC(=O)N3)c1 [4d] | 
 | > 30000 | COc1cccc(NS(=O)(=O)c2ccc3c(c2)CC(=O)N3C)c1 [4e] | 
 | 1150 ± 50 | COc1cccc(NS(=O)(=O)c2ccc3c(c2)CCN3C(C)=O)c1 [4f] | loss of potency relative to VU625 ([1]; AeKir1 Tl+ flux): ~3 fold
